# Test results published in US11198713B2, “Agents modulating beta-catenin functions and methods thereof” (FOG PHARMACEUTICALS, INC., priority 2017, dated 2021).
# Like-named read-outs stand apart in the source and are kept apart here. Numbered stars: 1 amine (or outer) side, 2 acyl side, 3 side chain; on linkers, the order of the positions; unused ones are H or OH. Bridge positions count the residues as written; N and C are the ends. Square brackets hold non-standard residues; d marks the D form. Peptide text beside a SMILES is read from it. 3Aminoazetidine3carboxyl = O=C(C1(N[*:1])CN([*:3])C1)[*:2]; dαMeDab(Me) = CN(CC[C@@](C)(N[*:1])C(=O)[*:2])[*:3]; αMeDab(Me) = CN(CC[C@](C)(N[*:1])C(=O)[*:2])[*:3]; X3 = O=C([C@@]1(N[*:1])CCN([*:3])C1)[*:2]; X1 = O=C([C@]1(N[*:1])CCN([*:3])C1)[*:2]; X2 = O=C(OCC=CCOC(=O)[*:2])[*:1]; Aib = CC(C)(N)C(=O)O
# Columns and labels:
# [1] = target: T1, full-length beta-catenin (Axin site) (Homo sapiens, UniProt P35222); test: Competition fluorescence polarization assay (Axin site probe); assay type: binding; details: competition fluorescence polarization, Table 2; read-out: in vitro FP EC50
# T1 construct: 15 nM full-length beta-catenin, 20 nM FITC labeled peptide in buffer
# T1 sequence (P35222 1-781): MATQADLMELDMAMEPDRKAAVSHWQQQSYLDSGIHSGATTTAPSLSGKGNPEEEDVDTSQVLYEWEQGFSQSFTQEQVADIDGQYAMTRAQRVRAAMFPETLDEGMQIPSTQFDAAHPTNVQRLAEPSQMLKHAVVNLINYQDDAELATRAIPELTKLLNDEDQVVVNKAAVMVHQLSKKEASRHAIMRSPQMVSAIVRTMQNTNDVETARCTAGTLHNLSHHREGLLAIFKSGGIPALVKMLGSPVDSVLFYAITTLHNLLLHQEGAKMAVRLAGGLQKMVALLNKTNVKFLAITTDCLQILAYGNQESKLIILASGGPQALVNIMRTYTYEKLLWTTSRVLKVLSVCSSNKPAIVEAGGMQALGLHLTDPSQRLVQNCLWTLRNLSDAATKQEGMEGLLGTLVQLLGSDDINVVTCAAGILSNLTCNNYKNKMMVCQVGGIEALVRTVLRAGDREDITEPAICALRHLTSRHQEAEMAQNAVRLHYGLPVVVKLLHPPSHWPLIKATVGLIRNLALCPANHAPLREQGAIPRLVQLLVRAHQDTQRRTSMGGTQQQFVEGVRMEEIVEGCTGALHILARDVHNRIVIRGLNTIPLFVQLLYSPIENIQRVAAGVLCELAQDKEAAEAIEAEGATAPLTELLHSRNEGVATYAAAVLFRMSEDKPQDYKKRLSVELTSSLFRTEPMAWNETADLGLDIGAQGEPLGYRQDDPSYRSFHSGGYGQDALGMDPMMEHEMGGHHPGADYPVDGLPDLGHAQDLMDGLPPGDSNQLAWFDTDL
# How it was run: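 Competition FP: 15 nM full-length β-catenin pre-incubated 5 min with 20 nM FITC-labelled stapled Axin-site peptide, then titrated peptide added (3-fold series from 5 μM) for 15 min in the dark. Buffer 50 mM Tris pH 8.0, 250 mM NaCl, 2% glycerol, 0.5 mM EDTA; duplicate reads.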
# [2] = Solubility in DPBS (A280 of supernatant); assay type: physicochemical; details: DPBS
# Description: Suitable assays for assessing solubility are widely known in the art and can be utilized in accordance with the present disclosure. In some embodiments, in an exemplary protocol, dried peptide was reconstituted in DPBS (DPBS, 1×, cell culture grade, Sigma D8537) in triplicate, vortexed, sonicated and then centrifuged. Absorbance of the supernatant was measured at A280 (Nanodrop 2000) and the concentration was determined using the extinction coefficient for tryptophan. Exemplary solubility data are presented in, e.g., Table 2.
# [3] = Table 3 Part A, read-out: Solubility in DPBS
EC50 [1],"solubility ([2]; Table 2, read-out: Solubility)","solubility [2, 3]","solubility thermodynamic [2, 3]",SMILES
100 to 500 nM,166 µM,166 µM,–,"CC[C@H](C)[C@@H]1NC(=O)[C@H](Cc2c[nH]cn2)NC(=O)[C@H](C)NC(=O)[C@H](CC(=O)O)NC(=O)[C@H](CC(C)C)NC(=O)[C@H]([C@@H](C)CC)NC(=O)[C@](C)(NC(=O)[C@H](C)NC(C)=O)CCN(C)C(=O)OCC=CCOC(=O)N(C)CC[C@@](C)(C(=O)N[C@@H](CCCNC(=N)N)C(=O)N[C@H](C(=O)N[C@@H](Cc2c[nH]c3ccccc23)C(N)=O)C(C)C)NC1=O [FP0594c, Ac-A-MG-I-L-D-A-H-I-MF-R-V-W-NH2] (Ac-A[dαMeDab(Me)]ILDAHI[αMeDab(Me)]RVW-NH2; linker 2-9 via X2)"
< 100 nM,40 µM,40 µM,–,"CC[C@H](C)[C@@H]1NC(=O)[C@H](Cc2c[nH]cn2)NC(=O)[C@H](C)NC(=O)[C@H](CC(=O)O)NC(=O)[C@H](CC(C)C)NC(=O)[C@H]([C@@H](C)CC)NC(=O)[C@@](C)(NC(=O)[C@H](C)NC(C)=O)CCN(C)C(=O)OCC=CCOC(=O)N2CC[C@@](C(=O)N[C@@H](CCCNC(=N)N)C(=O)N[C@H](C(=O)N[C@@H](Cc3c[nH]c4ccccc34)C(N)=O)C(C)C)(C2)NC1=O [FP0626c, Ac-A-MF-I-L-D-A-H-I-MB-R-V-W-NH2] (Ac-A[αMeDab(Me)]ILDAHI[X1]RVW-NH2; linker 2-9 via X2)"

# More lines, now with the values behind:
SMILES,EC50 [1],"solubility ([2]; Table 2, read-out: Solubility)","solubility [2, 3]","solubility thermodynamic [2, 3]"
"CC[C@H](C)[C@@H]1NC(=O)[C@H](Cc2c[nH]cn2)NC(=O)[C@H](C)NC(=O)[C@H](CC(=O)O)NC(=O)[C@H](CC(C)C)NC(=O)[C@H]([C@@H](C)CC)NC(=O)[C@](C)(NC(=O)[C@H](C)NC(C)=O)CCN(C)C(=O)OCC=CCOC(=O)N2CC[C@](C(=O)N[C@@H](CCCNC(=N)N)C(=O)N[C@H](C(=O)N[C@@H](Cc3c[nH]c4ccccc34)C(N)=O)C(C)C)(C2)NC1=O [FP0598c, Ac-A-MG-I-L-D-A-H-I-MC-R-V-W-NH2] (Ac-A[dαMeDab(Me)]ILDAHI[X3]RVW-NH2; linker 2-9 via X2)",< 100 nM,–,–,91 µM
"CC[C@H](C)[C@@H]1NC(=O)[C@H](Cc2c[nH]cn2)NC(=O)[C@H](C)NC(=O)[C@H](CC(=O)O)NC(=O)[C@H](CC(C)C)NC(=O)[C@H]([C@@H](C)CC)NC(=O)C2(NC(=O)[C@H](C)NC(C)=O)CN(C2)C(=O)OCC=CCOC(=O)N2CC[C@](C(=O)N[C@@H](CCCNC(=N)N)C(=O)N[C@H](C(=O)N[C@@H](Cc3c[nH]c4ccccc34)C(N)=O)C(C)C)(C2)NC1=O [FP0616c, Ac-A-MA-I-L-D-A-H-I-MC-R-V-W-NH2] (Ac-A[3Aminoazetidine3carboxyl]ILDAHI[X3]RVW-NH2; linker 2-9 via X2)",< 100 nM,56 µM,56 µM,–
"CC[C@H](C)[C@@H]1NC(=O)[C@H](Cc2c[nH]cn2)NC(=O)[C@H](C)NC(=O)[C@H](CC(=O)O)NC(=O)[C@H](CC(C)C)NC(=O)[C@H]([C@@H](C)CC)NC(=O)C2(NC(=O)[C@H](C)NC(C)=O)CN(C2)C(=O)OCC=CCOC(=O)N2CC[C@@](C(=O)N[C@@H](CCCNC(=N)N)C(=O)N[C@H](C(=O)N[C@@H](Cc3c[nH]c4ccccc34)C(N)=O)C(C)C)(C2)NC1=O [FP0617c, Ac-A-MA-I-L-D-A-H-I-MB-R-V-W-NH2] (Ac-A[3Aminoazetidine3carboxyl]ILDAHI[X1]RVW-NH2; linker 2-9 via X2)",< 100 nM,63 µM,63 µM,–
"CC[C@H](C)[C@H](NC(=O)[C@H](Cc1c[nH]cn1)NC(=O)[C@H](C)NC(=O)[C@H](CC(=O)O)NC(=O)[C@H](CC(C)C)NC(=O)[C@@H](NC(=O)C(C)(C)NC(=O)[C@H](C)NC(C)=O)[C@@H](C)CC)C(=O)NC(C)(C)C(=O)N[C@@H](CCCNC(=N)N)C(=O)N[C@H](C(=O)N[C@@H](Cc1c[nH]c2ccccc12)C(N)=O)C(C)C [FP0628_aib, Ac-A-Aib-I-L-D-A-H-I-Aib-R-V-W-NH2] (Ac-A[Aib]ILDAHI[Aib]RVW-NH2)",100 to 500 nM,88 µM,–,–
